Source: publication PMC6325233, “A Novel Actin Binding Drug with In Vivo Efficacy” (Antimicrobial Agents and Chemotherapy, 2018)

Assays:
[1] = test system: Candida albicans strain ATCC 66027; test: Hyphal induction (morphology switching) assay; type: cell-based; details: for % hyphae / % yeast: 1 µg/ml
Method: The hyphal induction assay was performed as previously reported with minor modifications ([58]). Candida albicans strain ATCC 66027 was grown in yeast extract-peptone-dextrose (YPD) medium at 30°C for 48 h to reach saturation with an OD600 of 17 to 19. Cells were diluted into fresh Spider medium (1% nutrient broth, 1% mannitol, 0.2% K2HPO4) to obtain an OD600 of 0.05 (∼0.5 × 10^6 to 1 × 10^6 cells/ml) and incubated at 37°C with shaking to induce hyphal formation. Immediately prior to the 37°C incubation, occidiofungin (1 µg/ml; 0.5× MIC) or an equal volume of DMSO was added to the cultures. Aliquots were removed at 0-, 1-, 2-, 4-, and 6-h time points and fixed in 3.7% formaldehyde for later analysis of cell morphology by light microscopy. More than 200 cells were examined for each time point, and cells were scored as having either a yeast or filamentous form, with cells showing any outgrowth considered filamentous. DNA segregation assays were performed using a mid-log culture of S. cerevisiae (BY4743, diploid) and C. albicans (ATCC 66027). The cultures were diluted in fresh YPD medium to obtain OD600s of 0.095 (∼1 × 10^6 to 1.5 × 10^6 cells/ml) and 0.05 (0.5 × 10^6 to 0.8 × 10^6 cells/ml), respectively. A blank vehicle control (DMSO) or occidiofungin (1 µg/ml; 0.5× MIC) was added, and the cultures were placed at 30°C with shaking. Samples were removed at 0.5, 1, and 2 h, and the cells fixed by adding formaldehyde (3.7%). The cells were washed in phosphate-buffered saline (PBS) and permeabilized by adding an equivalent volume of PBS containing 0.2% Triton X-100 for 30 min at room temperature. The cells were washed thrice in PBS, added to concanavalin A-treated glass slides, and overlaid with Vectashield plus DAPI (4′,6-diamidino-2-phenylindole). Images were viewed using a Nikon 50i fluorescence microscope with a 100× oil immersion objective and DAPI filter. Cells were scored on the basis of bud morphology and DNA location. One-way analyses of variance (ANOVAs) with post hoc Tukey’s honestly significant difference (HSD) testing were used to determine statistically significant differences in the distributions between treated and untreated cells. In addition, FM-464 uptake assays were used to observe endocytosis. Three 1-ml aliquots of S. pombe (OD600 of 0.6 to 0.8) were treated with 1 μl DMSO, 0.5 μg/ml (0.5× MIC), or 1 μg/ml (1× MIC) of native occidiofungin for 30 min at 30°C. The cells were washed thrice with PBS and resuspended in YPD medium containing […] FM-464 (Thermo Fisher Scientific). The cells were incubated for 60 min at 30°C, followed by two washes in PBS before visualizing on an Olympus FV1000 confocal microscope with a 40×/0.9 dry objective. Lastly, actin polymerization and depolymerization assays were performed using the Actin polymerization biochem kit (catalog number BK003; Cytoskeleton, Inc.) according to the manufacturer’s instructions.

[2] = Murine model of vulvovaginal candidiasis, tolerability; type: in vivo, BALB/c mice
Method: The murine model of vulvovaginal candidiasis has been reported ([59]). A variation of this method was used. Three groups of six mice were used to evaluate two concentrations of occidiofungin (100 μg and 50 μg) and vehicle control (0.3% Noble agar). Briefly, 6- to 8-week-old BALB/c mice were treated subcutaneously with 200 ng per mouse of β-estradiol 17-valerate 3 days prior to inoculation with C. albicans (day −3). A subcutaneous dose of estradiol was administered every 3 days (day 0 [D0] and D3) until the end of the experiment to induce pseudoestrus. Intravaginal inoculations of approximately 20 μl of 2.5 × 10^6 CFU/ml of C. albicans were performed on D0 of the VVC study. On the same day of inoculation (D0), another subcutaneous injection of estradiol was made. A lyophilized powder of occidiofungin containing either 100 μg or 50 μg of occidiofungin was suspended in 20 μl of warm 0.3% Noble agar before the intravaginal inoculations. Drug treatments were performed on D2, D3, and D4 of the study. On day 5 (D5), the vaginal lumen was lavaged with 100 μl of sterile PBS with a 200-µl pipette tip. Serial dilutions and total CFU per vaginal lavage were determined by plating on YPD plates containing 50 μg/ml of chloramphenicol. Body weights, signs of vaginal irritation such as swelling or bleeding, and clinical signs of discomfort (stereotypical stretching behavior) were monitored. Statistical analyses (t tests) were performed to compare the control group to the treated groups and to compare differences between treated groups. All the analyses were 2 sided, with a P value of <0.05 considered statistically significant.

[3] = T=1hr, replicate 1, untreated 51.7/48.3
[4] = T=1hr, replicate 2, untreated 72.7/27.3
[5] = T=1hr, replicate 3, untreated 43.6/56.4
[6] = T=2hr, replicate 1, untreated 23.4/76.6
[7] = T=2hr, replicate 2, untreated 15.6/84.4
[8] = T=2hr, replicate 3, untreated 14.2/85.8
[9] = T=4hr, replicate 1, untreated 7.1/92.9
[10] = T=4hr, replicate 2, untreated 17.4/82.6
[11] = T=4hr, replicate 3, untreated 13.2/86.8
[12] = T=6hr, replicate 2, untreated 52.2/47.8
[13] = T=6hr, replicate 3, untreated 21.1/78.9
[14] = intravaginal 100 and 50 µg, once per day for 3 days

occidiofungin
% hyphae ([1]; T=0hr, replicate 1): 0%
% yeast ([1]; T=0hr, replicate 1): 100%
% hyphae ([1]; T=0hr, replicate 2): 0%
% yeast ([1]; T=0hr, replicate 2): 100%
% hyphae ([1]; T=0hr, replicate 3): 0%
% yeast ([1]; T=0hr, replicate 3): 100%
% hyphae [1, 3]: 0%
% yeast [1, 3]: 100%
% hyphae [1, 4]: 0%
% yeast [1, 4]: 100%
% hyphae [1, 5]: 0%
% yeast [1, 5]: 100%
% hyphae [1, 6]: 0%
% yeast [1, 6]: 100%
% hyphae [1, 7]: 0%
% yeast [1, 7]: 100%
% hyphae [1, 8]: 0%
% yeast [1, 8]: 100%
% hyphae [1, 9]: 0.5%
% yeast [1, 9]: 99.5%
% hyphae [1, 10]: 0%
% yeast [1, 10]: 100%
% hyphae [1, 11]: 0.2%
% yeast [1, 11]: 99.8%
% hyphae [1, 12]: 0%
% yeast [1, 12]: 100%
% hyphae [1, 13]: 0%
% yeast [1, 13]: 100%
effect on hyphal formation ([1]; subinhibitory concentration (1 µg/ml; 0.5× MIC)): blocked hyphal formation
behavioral changes (sluggishness, stretching, reluctance to consume food) [2, 14]: No behavioral changes
vaginal bleeding or swelling [2, 14]: no vaginal bleeding or swelling was observed
signs of toxicity ([2]; treatment of murine vulvovaginal candidiasis): without any signs of toxicity
